Where “and” joins values, the source holds several entries; their conditions need not be identical. Identical values can stand only once. Like-named read-outs stand apart in the source and are kept apart here. Square brackets hold non-standard residues; d marks the D form. * marks the point of attachment. Dap = NC[C@H](N)C(=O)O; Bn = c1ccc(C*)cc1
Columns and labels:
[1] = molecular target: kappa opioid receptor (KOR) (Rattus norvegicus, UniProt P34975); experiment: biochemical; assay type: binding
Sequence of kappa opioid receptor (KOR) (P34975 whole entry): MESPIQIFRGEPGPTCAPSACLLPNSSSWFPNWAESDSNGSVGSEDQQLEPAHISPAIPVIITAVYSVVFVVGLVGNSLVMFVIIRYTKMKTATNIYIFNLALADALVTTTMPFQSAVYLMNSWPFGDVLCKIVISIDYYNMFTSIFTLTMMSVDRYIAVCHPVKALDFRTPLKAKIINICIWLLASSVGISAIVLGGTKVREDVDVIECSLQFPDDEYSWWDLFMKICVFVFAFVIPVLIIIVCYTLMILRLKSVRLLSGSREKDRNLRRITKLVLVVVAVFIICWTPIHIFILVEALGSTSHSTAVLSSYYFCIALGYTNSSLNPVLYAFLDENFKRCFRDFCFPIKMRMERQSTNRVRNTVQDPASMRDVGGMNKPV

KOR [2] = molecular target: T1, KOR (Rattus norvegicus, UniProt P34975); conditions: after a single dose; cited from earlier work
T1 sequence (P34975 whole entry): as above

[3] = system: stress-induced reinstatement of cocaine seeking behavior; conditions: mice, s.c. administration; cited from earlier work
mu opioid receptor (MOR) = mu opioid receptor (MOR) (Rattus norvegicus, UniProt P33535); experiment: Radioligand binding assay, MOR
Sequence of mu opioid receptor (MOR) (P33535 whole entry): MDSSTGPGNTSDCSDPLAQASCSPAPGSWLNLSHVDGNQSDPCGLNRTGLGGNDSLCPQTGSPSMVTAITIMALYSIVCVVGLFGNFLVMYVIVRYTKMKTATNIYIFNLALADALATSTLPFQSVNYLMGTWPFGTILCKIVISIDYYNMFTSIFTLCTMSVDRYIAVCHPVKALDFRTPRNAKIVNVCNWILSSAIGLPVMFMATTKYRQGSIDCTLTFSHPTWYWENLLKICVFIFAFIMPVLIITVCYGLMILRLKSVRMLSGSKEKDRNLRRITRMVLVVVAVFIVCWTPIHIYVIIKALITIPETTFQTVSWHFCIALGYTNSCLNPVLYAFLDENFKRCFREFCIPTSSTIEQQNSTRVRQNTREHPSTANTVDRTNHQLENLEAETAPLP

KOR [4] = molecular target: T1, KOR; experiment: Agonist stimulated [^35S]GTPγS binding assay, agonist efficacy; assay type: biochemical
KOR [5] = molecular target: T1, KOR; experiment: Schild analysis against Dyn A; assay type: biochemical
KOR [6] = molecular target: T1, KOR; conditions: read-out: KOR Ki found previously; cited from earlier work

## CC[C@H](C)[C@H](NC(=O)[C@H](CCCN=C(N)N)NC(=O)[C@H](CCCN=C(N)N)NC(=O)[C@H](CC(C)C)NC(=O)[C@H](Cc1ccccc1)NC(=O)CNC(=O)CNC(=O)[C@@H](N)Cc1ccc(O)cc1)C(=O)N[C@@H](CCCN=C(N)N)C(=O)N1CCC[C@H]1C(=O)N[C@@H](CCCCN)C(N)=O [Dyn A(1-11)NH2, reference compound]
[1]; KOR Ki (nM ± SEM)
  Ki: 2.6 ± 0.3 nM

## CC(C)[C@@H](CN1CC[C@@](C)(c2cccc(O)c2)[C@@H](C)C1)NC(=O)[C@H]1Cc2ccc(O)cc2CN1 [JDTic, (3R)-7-hydroxy-N-[(2S)-1-[(3R,4R)-4-(3-hydroxyphenyl)-3,4-dimethylpiperidin-1-yl]-3-methylbutan-2-yl]-1,2,3,4-tetrahydroisoquinoline-3-carboxamide]
KOR [2]
  duration of KOR antagonist activity: lasting weeks after a single dose

## N=C(N)NCCC[C@@H]1NC(=O)[C@H](CCCNC(=N)N)NC(=O)[C@H](NC(=O)[C@H](Cc2ccccc2)NC(=O)CNC(=O)CNC(=O)[C@H](Cc2ccc(O)cc2)NCc2ccccc2)CC(=O)NC[C@@H](C(=O)N[C@@H](CCCNC(=N)N)C(=O)N2CCC[C@H]2C(=O)N[C@@H](CCCCN)C(N)=O)NC1=O [Peptide 1, [N-benzyl-Tyr^1-cyclo(D-Asp^5,Dap^8)]dynorphin A(1-11)NH2]
[1]; KOR Ki 95% confidence interval, n = 10
  Ki: 30 to 160 nM
[1]; KOR Ki (nM ± SEM)
  Ki: 95.2 ± 28.8 nM
[1]; compared to zyklophin (1.0)
  Relative KOR affinity: 1.0
[3]
  stress-induced reinstatement of cocaine seeking behavior: suppressed
Mu opioid receptor (MOR)
  Ki: 4380 ± 560 nM

## CC[C@H](C)[C@H](NC(=O)[C@H](CCCNC(=N)N)NC(=O)[C@H](CCCNC(=N)N)NC(=O)[C@@H](CC(N)=O)NC(=O)[C@H](Cc1ccccc1)NC(=O)CNC(=O)CNC(=O)[C@H](Cc1ccc(O)cc1)NCc1ccccc1)C(=O)N[C@@H](CCCNC(=N)N)C(=O)N1CCC[C@H]1C(=O)N[C@@H](CCCCN)C(N)=O [Peptide 2, NBn-Tyr^1-Gly-Gly-Phe-DAsn^5-Arg-Arg-Ile-Arg-Pro-Lys-NH2]
[1]
  fold lower KOR affinity compared to zyklophin: 4 fold

## CC(=O)NC[C@H](NC(=O)[C@H](CCCNC(=N)N)NC(=O)[C@H](CCCNC(=N)N)NC(=O)[C@H](CC(C)C)NC(=O)[C@H](Cc1ccccc1)NC(=O)CNC(=O)CNC(=O)[C@H](Cc1ccc(O)cc1)NCc1ccccc1)C(=O)N[C@@H](CCCNC(=N)N)C(=O)N1CCC[C@H]1C(=O)N[C@@H](CCCCN)C(N)=O [Peptide 3, NBn-Tyr^1-Gly-Gly-Phe-Leu-Arg-Arg-Dap(Ac)^8-Arg-Pro-Lys-NH2]
[1]
  Ki ratio, Ki (MOR)/Ki (KOR): 5
  Relative KOR affinity: 3.3
  fold higher KOR affinity compared to zyklophin: 3 fold
[1]; KOR Ki (nM ± SEM)
  Ki: 28 nM and 28.6 nM
KOR [4]
  EC50: 39.5 ± 17.4 nM
KOR [4]; screened at 10 µM, compared to the full agonist Dyn A(1-13)NH2
  KOR efficacy in the GTPγS assay: 26%
Mu opioid receptor (MOR)
  Ki: 157 ± 25 nM
  fold higher MOR affinity than zyklophin: 28 fold

## Oc1ccc2c3c1O[C@H]1c4[nH]c5c(c4C[C@@]4(O)[C@@H](C2)N(CC2CC2)CC[C@]314)C[C@@]1(O)[C@H]2Cc3ccc(O)c4c3[C@@]1(CCN2CC1CC1)[C@H]5O4 [norBNI, nor-binaltorphimine, reference compound]
KOR [5]
  Kb: 0.074 nM
KOR [2]
  duration of KOR antagonist activity: lasting weeks after a single dose

## [N-benzyl-Tyr^1,D-Asn^5,Dap(Ac)^8]Dyn A(1-11)NH2 (Bn-YGGF[dN]RR[Dap](Ac)RPK-NH2; not fully specified (residue 1))
KOR [6]
  Ki: 66.9 nM

Reference: article PMC4771075 (Journal of medicinal chemistry, 2015)
